From ChEMBL document CHEMBL1132172, “Synthesis of a series of stromelysin-selective thiadiazole urea matrix metalloproteinase inhibitors” (J Med Chem, 1999) come the findings set out here.

By pIC50 is commonly meant the negative decadic logarithm of the IC50, by convention in mol/L. Read a high pIC50 as a low IC50. As a reminder, the pKi is the Ki on a negative log10 scale, so that one unit is a factor of ten.

pIC50, pKi: −log10 of the molar value.

In one experiment the target is Stromelysin-1 (Homo sapiens, UniProt P08254).
Stromelysin-1, sequence (P08254 whole entry): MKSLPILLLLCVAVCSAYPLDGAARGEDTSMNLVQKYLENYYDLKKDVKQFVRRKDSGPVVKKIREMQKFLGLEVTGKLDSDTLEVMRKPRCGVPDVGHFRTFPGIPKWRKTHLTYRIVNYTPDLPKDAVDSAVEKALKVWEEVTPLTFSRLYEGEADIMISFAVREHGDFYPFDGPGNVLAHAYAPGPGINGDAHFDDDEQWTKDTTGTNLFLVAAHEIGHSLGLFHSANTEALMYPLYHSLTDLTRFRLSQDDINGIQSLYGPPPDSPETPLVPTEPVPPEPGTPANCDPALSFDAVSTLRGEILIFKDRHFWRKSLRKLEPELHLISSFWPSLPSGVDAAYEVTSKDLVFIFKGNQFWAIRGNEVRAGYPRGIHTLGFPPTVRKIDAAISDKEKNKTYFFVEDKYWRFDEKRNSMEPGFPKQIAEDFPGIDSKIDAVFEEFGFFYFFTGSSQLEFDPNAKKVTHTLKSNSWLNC
Description: Inhibitory concentration against Matrix metalloprotease-3
The compound `O=C(NCc1cccc2ccccc12)Nc1nnc(S)s1` gave a pIC50 of 4.64.
On the same count and under the same terms, in the case of `Sc1nnc(NCc2ccco2)s1` it was 3.54; in that of `O=C(Nc1ccc(F)cc1)Nc1nnc(S)s1`, 4.54.
Still for that read-out and setting: to `CCNc1nnc(S)s1` belongs less than 2.70; to `Sc1nnc(NCCCCc2ccccc2)s1`, 3.50.
The same measure, in the same setting: in the case of `Cc1cccc(Cl)c1Nc1nnc(S)s1` it was 3.76; in that of `O=C(NCCCCc1ccccc1)Nc1nnc(S)s1`, 4.47; in that of `Sc1nnc(Nc2ccccc2)s1`, 3.72.
`O=C(Nc1ccccc1)Nc1nnc(S)s1`: the pIC50 was 4.00.
On the same count and under the same terms, to `CCCCCCCCCCCCNc1nnc(S)s1` belongs 4.01; to `Sc1nnc(NCc2ccccc2)s1`, 4.01.
The same measure, in the same setting: to `Sc1nnc(NCCc2ccccc2)s1` belongs 4.33; to `Cn1nc(NC(=O)NCCc2ccccc2)sc1=S`, 3.16.
`CCN(C(=O)NCCc1ccccc1)c1nnc(S)s1` showed a pIC50 of less than 3.00.
Compound `O=C(NCc1ccccc1)Nc1nncs1` gave a pIC50 of less than 2.70.

Another experiment deals with T1, Interstitial collagenase (Homo sapiens, UniProt P03956).
T1 sequence (P03956 whole entry): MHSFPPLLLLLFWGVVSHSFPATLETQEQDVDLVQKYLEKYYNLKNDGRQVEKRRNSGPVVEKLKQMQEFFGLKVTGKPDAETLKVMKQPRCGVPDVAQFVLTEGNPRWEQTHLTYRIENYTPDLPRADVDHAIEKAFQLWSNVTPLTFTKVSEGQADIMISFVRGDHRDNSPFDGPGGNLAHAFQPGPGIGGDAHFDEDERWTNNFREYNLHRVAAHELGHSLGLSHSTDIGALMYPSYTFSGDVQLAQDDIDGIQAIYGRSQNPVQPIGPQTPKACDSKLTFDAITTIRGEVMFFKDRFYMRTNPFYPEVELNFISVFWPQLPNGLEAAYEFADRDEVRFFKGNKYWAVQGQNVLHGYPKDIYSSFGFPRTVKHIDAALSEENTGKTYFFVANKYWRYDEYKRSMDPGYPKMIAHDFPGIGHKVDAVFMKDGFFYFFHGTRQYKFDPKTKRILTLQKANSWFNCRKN
Description: Binding affinity for matrix metalloprotease-1
As to `CNC(=O)[C@H](Cc1ccccc1)NC(=O)Nc1nnc(S)s1`, the pKi was 4.51.
Same read-out and setting: to `O=C(Nc1nnc(S)s1)N[C@@H](Cc1ccccc1)C(=O)N1CCSCC1` belongs 4.92; to `CN(C)C(=O)[C@H](Cc1ccccc1)NC(=O)Nc1nnc(S)s1`, 3.65; to `NC(=O)[C@H](Cc1ccccc1)NC(=O)Nc1nnc(S)s1`, less than 3.70.
Still for that read-out and setting: to `CNC(=O)[C@H](Cc1c(F)c(F)c(F)c(F)c1F)NC(=O)Nc1nnc(S)s1` belongs 5.52; to `CNC(=O)[C@@H](Cc1ccccc1)NC(=O)Nc1n[nH]c(=S)s1`, less than 3.70.
On the same count and under the same terms, in the case of `CNC(=O)[C@H](CC1CCCCC1)NC(=O)Nc1n[nH]c(=S)s1` it was 4.17; in that of `O=C(Nc1nnc(S)s1)N[C@@H](Cc1ccccc1)C(=O)N1CCN(c2ncccn2)CC1`, 4.80.
Take `CNC(=O)[C@H](CO)NC(=O)Nc1n[nH]c(=S)s1`: the pKi is less than 3.70.
On the same count and under the same terms, in the case of `CNC(=O)[C@@H](NC(=O)Nc1n[nH]c(=S)s1)c1ccccc1` it was 4.39; in that of `COc1ccc(CNC(=O)[C@H](Cc2ccccc2)NC(=O)Nc2nnc(S)s2)cc1OC`, 5.21; in that of `O=C(Nc1nnc(S)s1)N[C@@H](Cc1ccc(F)cc1)C(=O)N1CCN(c2ccccn2)CC1`, 5.74.
Turning to `O=C(Nc1nnc(S)s1)N[C@@H](Cc1ccccc1)C(=O)NCc1ccccc1`, the pKi was 4.82.
The compound `O=C(Nc1nnc(S)s1)N[C@@H](Cc1ccccc1)C(=O)O` had a pKi of less than 3.70.
Still for that read-out and setting: in the case of `O=C(Nc1nnc(S)s1)N[C@@H](Cc1ccccc1)C(=O)N1CCCC1` it was 4.70; in that of `O=C(Nc1nnc(S)s1)N[C@@H](Cc1ccccc1)C(=O)N1CCN(c2ccccn2)CC1`, 5.82; in that of `CNC(=O)[C@H](Cc1ccc(O)cc1)NC(=O)Nc1nnc(S)s1`, 4.68.
Same read-out and setting: to `CNC(=O)[C@H](Cc1ccc([N+](=O)[O-])cc1)NC(=O)Nc1nnc(S)s1` belongs 4.82; to `CNC(=O)[C@H](Cc1ccc(F)cc1)NC(=O)Nc1nnc(S)s1`, 5.05.
The compound `O=C(Nc1nnc(S)s1)N[C@@H](Cc1c(F)c(F)c(F)c(F)c1F)C(=O)N1CCN(c2ccccn2)CC1` showed a pKi of 6.11.
Still for that read-out and setting: to `CNC(=O)CNC(=O)Nc1n[nH]c(=S)s1` belongs less than 4.00.
For `CNC(=O)[C@H](COCc1ccccc1)NC(=O)Nc1nnc(S)s1`, the pKi was 4.28.
Same read-out and setting: in the case of `COC(=O)[C@H](Cc1ccccc1)NC(=O)Nc1nnc(S)s1` it was 4.77; in that of `O=C(Nc1nnc(S)s1)N[C@@H](Cc1ccccc1)C(=O)N1CCOCC1`, 4.49; in that of `O=C(Nc1nnc(S)s1)N[C@@H](Cc1ccccc1)C(=O)N1CCN(Cc2ccccc2)CC1`, 4.54.
Same read-out and setting: to `CNC(=O)[C@H](Cc1ccc(OC)cc1)NC(=O)Nc1nnc(S)s1` belongs 4.80.
Take `CNC(=O)[C@H](CC(C)C)NC(=O)Nc1nnc(S)s1`: the pKi is less than 3.70.
The same measure, in the same setting: to `O=C(Nc1nnc(S)s1)N[C@@H](Cc1ccccc1)C(=O)NCC1CCCCC1` belongs less than 3.70; to `COc1ccc(N2CCN(C(=O)[C@H](Cc3ccccc3)NC(=O)Nc3nnc(S)s3)CC2)cc1`, 5.22.
